ChEMBL document CHEMBL1201862, “PubChem BioAssay data set” (2004)
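How tested: cells in 96-well plates exposed to compound for 48 hours at five concentrations. At the GI50, growth is halved.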 Calls of active or inactive are those of the source. Cut-off read from the data, not from the text of the source: active = GI50 up to about 1.1 µM and inactive = higher.

Legend:
Experiment in all cases: DTP human tumour cell line panel, 48 h
786-0 = system: 786-0
A498 = system: A498
A549 = system: A549
ACHN = system: ACHN
BT-549 = system: BT-549
CAKI-1 = system: CAKI-1
CCRF-CEM = system: CCRF-CEM
COLO 205 = system: COLO 205
DU-145 = system: DU-145
EKVX = system: EKVX
HCC 2998 = system: HCC 2998
HCT-116 = system: HCT-116
HCT-15 = system: HCT-15
HL-60 = system: HL-60
HOP-62 = system: HOP-62
HOP-92 = system: HOP-92
HT-29 = system: HT-29
Hs-578T = system: Hs-578T
IGROV-1 = system: IGROV-1
K562 = system: K562
KM12 = system: KM12
LOX IMVI = system: LOX IMVI
M14 = system: M14
MCF7 = system: MCF7
MDA-MB-231 = system: MDA-MB-231
MDA-MB-435 = system: MDA-MB-435
MDA-N = system: MDA-N
MOLT-4 = system: MOLT-4
Malme-3M = system: Malme-3M
NCI-H226 = system: NCI-H226
NCI-H23 = system: NCI-H23
NCI-H460 = system: NCI-H460
NCI-H522 = system: NCI-H522
OVCAR-3 = system: OVCAR-3
OVCAR-4 = system: OVCAR-4
OVCAR-5 = system: OVCAR-5
OVCAR-8 = system: OVCAR-8
PC-3 = system: PC-3
RPMI-8226 = system: RPMI-8226
RXF 393 = system: RXF 393
SF-268 = system: SF-268
SF-295 = system: SF-295
SF-539 = system: SF-539
SK-MEL-28 = system: SK-MEL-28
SK-MEL-2 = system: SK-MEL-2
SK-MEL-5 = system: SK-MEL-5
SK-OV-3 = system: SK-OV-3
SN12C = system: SN12C
SNB-19 = system: SNB-19
SNB-75 = system: SNB-75
SR = system: SR
SW-620 = system: SW-620
T47D = system: T47D
TK-10 = system: TK-10
U-251 = system: U-251
UACC-257 = system: UACC-257
UACC-62 = system: UACC-62
NCI/ADR-RES = system: NCI/ADR-RES
UO-31 = system: UO-31

O=C1OC(c2ccc([N+](=O)[O-])cc2)=N/C1=C\c1ccc(O)cc1
GI50 (786-0): > 100 µM (inactive) | GI50 (A498): > 100 µM (inactive) | GI50 (A549): > 100 µM (inactive) | GI50 (ACHN): > 100 µM (inactive) | GI50 (BT-549): > 100 µM (inactive) | GI50 (CAKI-1): > 100 µM (inactive) | GI50 (CCRF-CEM): > 100 µM (inactive) | GI50 (COLO 205): > 100 µM (inactive) | GI50 (DU-145): > 100 µM (inactive) | GI50 (EKVX): > 100 µM (inactive) | GI50 (HCC 2998): > 100 µM (inactive) | GI50 (HCT-116): > 100 µM (inactive) | GI50 (HCT-15): > 100 µM | GI50 (HL-60): > 100 µM (inactive) | GI50 (HOP-62): > 100 µM (inactive) | GI50 (HOP-92): > 100 µM (inactive) | GI50 (HT-29): > 100 µM (inactive) | GI50 (Hs-578T): > 100 µM (inactive) | GI50 (IGROV-1): > 100 µM (inactive) | GI50 (K562): > 100 µM (inactive) | GI50 (KM12): > 100 µM (inactive) | GI50 (LOX IMVI): > 100 µM (inactive) | GI50 (M14): > 100 µM (inactive) | GI50 (MCF7): > 100 µM (inactive) | GI50 (MDA-MB-231): > 100 µM (inactive) | GI50 (MDA-MB-435): > 100 µM (inactive) | GI50 (MDA-N): > 100 µM (inactive) | GI50 (MOLT-4): > 100 µM (inactive) | GI50 (Malme-3M): > 100 µM (inactive) | GI50 (NCI-H226): > 100 µM (inactive) | GI50 (NCI-H23): > 100 µM (inactive) | GI50 (NCI-H460): > 100 µM (inactive) | GI50 (NCI-H522): > 100 µM (inactive) | GI50 (OVCAR-3): > 100 µM (inactive) | GI50 (OVCAR-4): > 100 µM (inactive) | GI50 (OVCAR-5): > 100 µM (inactive) | GI50 (OVCAR-8): > 100 µM (inactive) | GI50 (PC-3): > 100 µM (inactive) | GI50 (RPMI-8226): > 100 µM (inactive) | GI50 (RXF 393): > 100 µM (inactive) | GI50 (SF-268): > 100 µM (inactive) | GI50 (SF-295): > 100 µM (inactive) | GI50 (SF-539): > 100 µM (inactive) | GI50 (SK-MEL-28): > 100 µM (inactive) | GI50 (SK-MEL-2): > 100 µM (inactive) | GI50 (SK-MEL-5): > 100 µM (inactive) | GI50 (SK-OV-3): > 100 µM (inactive) | GI50 (SN12C): > 100 µM (inactive) | GI50 (SNB-19): > 100 µM (inactive) | GI50 (SNB-75): > 100 µM (inactive) | GI50 (SR): > 100 µM (inactive) | GI50 (SW-620): > 100 µM (inactive) | GI50 (T47D): > 100 µM (inactive) | GI50 (TK-10): > 100 µM (inactive) | GI50 (U-251): > 100 µM (inactive) | GI50 (UACC-257): > 100 µM (inactive) | GI50 (UACC-62): > 100 µM (inactive)

CCN(CC)CCNc1n[n+]([O-])c2cc([N+](=O)[O-])ccc2[n+]1[O-]
GI50 (A498): 1.79 µM (inactive) | GI50 (A549): 0.752 µM (active) | GI50 (BT-549): 2.37 µM (inactive) | GI50 (CAKI-1): 0.337 µM (active) | GI50 (COLO 205): 0.605 µM (active) | GI50 (EKVX): 1.98 µM (inactive) | GI50 (HCT-116): 0.483 µM (active) | GI50 (HOP-62): 0.661 µM (active) | GI50 (HT-29): 0.374 µM (active) | GI50 (Hs-578T): 2.59 µM (inactive) | GI50 (IGROV-1): 0.191 µM (active) | GI50 (KM12): 0.948 µM (active) | GI50 (LOX IMVI): 0.601 µM (active) | GI50 (M14): 0.587 µM (active) | GI50 (MDA-MB-435): 1.38 µM (inactive) | GI50 (MDA-N): 0.863 µM (active) | GI50 (NCI-H226): 1.7 µM (inactive) | GI50 (NCI/ADR-RES): 1.27 µM (inactive) | GI50 (OVCAR-3): 0.893 µM (active) | GI50 (OVCAR-4): 1.31 µM (inactive) | GI50 (OVCAR-5): 1.92 µM (inactive) | GI50 (OVCAR-8): 0.538 µM (active) | GI50 (RXF 393): 1.52 µM (inactive) | GI50 (SF-268): 1.11 µM (active) | GI50 (SK-MEL-28): 6.32 µM (inactive) | GI50 (SK-MEL-5): 0.714 µM (active) | GI50 (SK-OV-3): 1.05 µM (active) | GI50 (SNB-19): 1.4 µM (inactive) | GI50 (U-251): 1.08 µM (active) | GI50 (UO-31): 2.94 µM (inactive)
